Source: a melting point compilation (Tetko et al.; mined from patent text by program, amines drawn as free bases though some values may be those of a salt)

Compound | melting point
O=S(=O)(Nc1cccc(I)c1)C(F)(F)F | 75 to 77 °C
O=c1oc2c(c(O)c1Sc1ccc(Cl)cc1)c(=O)n(Cc1ccccc1)c1ccccc21 | 273 to 275 °C
CCC(CC)Oc1cc(C)nc(Nc2c(C)cc(C)cc2C)c1C | 132 to 133 °C
CCN1c2ncccc2C(=O)N(C)c2ccc(-c3c[nH]c(C(C)=O)c3)nc21 | 219 to 220 °C
COc1ccc(C(=CC#N)c2ccc3ccccc3c2)cc1OC | 121 to 123 °C
CCOC(=O)Cc1ccc(NC(=O)C(Cc2ccccc2)NS(=O)(=O)c2ccc(Cl)cc2)cc1 (racemic) | 148 to 150 °C
O=C(OCc1ccccc1)C(C(=O)OCc1ccccc1)n1cccc1 | 48.5 to 49 °C
COc1cnc(CSc2nc3cc4c(cc3[nH]2)OC(F)(F)O4)cc1OC | 189 to 191 °C
O=C(O)CCCCCN1C(=O)c2ccc(C(=O)O)cc2C1=O | 202 to 204 °C
CC(C)(C)OC(=O)N[C@@H]1CN[C@H]2CCCO[C@H]21 (relative stereo) | 110 to 111 °C
Cc1ccc(-c2c(C)c(NC(=O)CC(C)(C)C)c(C)c3c2OCC3c2ccc(C(C)C)cc2)cc1 (stereo not given) | 194 to 195 °C
COc1cc(C(C)=O)ccc1OCCCN1CCN(c2n[nH]c3cc(Cl)ccc23)CC1 | 132 to 134 °C
OCC1CCC(N2CCC(=C3c4ccc(F)cc4Sc4ccc(C(F)(F)F)cc43)CC2)CC1 (stereo not given) | 208 to 211 °C
CCn1ncc2c1NC(=O)CC2C(F)(F)F (stereo not given) | 129 to 130 °C
CNC(=O)c1ccccc1Nc1nc(Nc2cc3c(cc2OC)CC(=O)N(CCCN2CCOCC2)CC3)ncc1Cl | 92 to 100 °C
CC(C)C1(C)N=C(c2ccc(O)cn2)NC1=O (stereo not given) | 252 to 254 °C
CCOC(=O)c1cnc(Nc2ccc(N(C)C)cc2)[nH]c1=O | 246 to 248 °C
BrC12CC3CC(CC(C3)C1=C1C3CC4CC(C3)CC1C4)C2 | 130 to 132 °C
Cc1nnc(COc2ccc(NC(=O)/C=C/c3cnn(C)c3-c3ccc(F)cc3)cc2)o1 | 117 to 118 °C
CCCCNC(=S)N1CCN(c2cnccn2)CC1 | 97.5 to 98.5 °C
O=C(CCCCC1CCN(Cc2ccccc2)CC1)c1ccc(F)cc1 | 67 to 68 °C
O=[N+]([O-])c1ccc(OCc2ccc(Cl)nc2)cc1F | 174 °C
Cc1ccnc2c(-c3ccc(C)c4c(C)ccnc34)ccc(C)c12 | 290 to 295 °C
COC(=O)NC(Cc1ccccc1)C1CC(Cc2ccccc2)=NO1 (stereo not given) | 87 to 88.5 °C

Compound | melting point
CCOC(=O)C1(C(N)=O)OCCO1 | 99 to 100 °C
COc1cccc(CNc2nccc(-c3cc(N4CCN(CCCN5CCCCC5)CC4)c4cc(OC)ccc4c3)n2)c1 | 63 to 75 °C
O=C1CC2(CCOc3ccc(Cl)cc32)C(=O)N1 (stereo not given) | 225 to 226 °C
O=[N+]([O-])c1ccc(C(O)C(COc2ccccc2)N2CCC(Cc3ccccc3)CC2)cc1 (stereo not given) | 159 to 162 °C
N#Cc1ccc2nc(C(O)(Cn3cncn3)c3ccc(F)cc3F)sc2c1 (stereo not given) | 170 to 172 °C
O=[N+]([O-])c1ccc(C(Nc2ccccc2)P(=O)(Oc2ccccc2)Oc2ccccc2)cc1 (stereo not given) | 158 to 160 °C
CC(C)c1nc(CCCO)n(CCO)c1Sc1cc(Cl)cc(Cl)c1 | 155 to 163 °C
C=C(C)C(=O)Oc1ccc2c(c1)C(=O)c1ccccc1C2=O | 184 to 186 °C
COc1cc2ccoc2cc1N1CCN(CC2Cc3ccccc3C2)CC1 | 188 to 192 °C
CC(C)(C)c1ccc(C#N)cc1NC(=O)NCc1ccccc1 | 160 to 161 °C
CC(C)(C)OC(=O)c1ccc2[nH]ccc2c1 | 91 to 93 °C
CC(C)(C)OC(=O)C[C@H](NC(=O)CNC(=O)c1csc(NC(=O)NCc2ccccc2)n1)C(=O)NCc1ccccn1 | 108 °C
COc1ccc(C(CO)CNC(=O)C(N)=O)cc1OC1CCCC1 (stereo not given) | 176 °C
Cc1cccc2c(=O)[nH]c(CCCN3CCC[C@@H]3CO)cc12 | 150 to 151 °C
C#CCNC(=O)c1cccc(-c2cccc(OCCc3ccc(OC)c(OC)c3)n2)c1 | 142 to 143 °C
CCC(O)c1nc(C)nc2c1c(C)c(C)n2-c1c(C)cc(C)cc1C (stereo not given) | 143 to 144 °C
COc1ccc(Cn2cnc3c(-c4ccco4)nc(C#C[Si](C)(C)C)nc32)cc1 | 155 to 157 °C
CCOC(=O)c1c(CC(=O)O)n(-c2ccc(OC(F)(F)F)cc2)c2ccc(Oc3ncccc3C(N)=O)cc12 | 128 to 130 °C
CC(c1ccccc1)N1CC(CF)(C(=O)NCc2ccccc2)CC1=O (stereo not given) | 114 to 116 °C
O=C(O)c1ccc(F)c2c1CC(N(CCCc1c[nH]c3ccc(F)cc13)C1CCC1)CO2 (stereo not given) | 140 °C
NCc1cccc(OCc2nc(-c3ccc(Cl)cc3)cs2)c1 | 117 to 118 °C
CN1Cc2c(Br)ncn2-c2cccc(Cl)c2C1=O | 178 to 179 °C
COc1ccc(NC(=O)c2cc([N+](=O)[O-])ccc2NC(=O)c2ccc(C(C)(C)C)cc2)cc1 | 210 to 211 °C
CN(c1ccc(Cl)nc1)S(C)(=O)=O | 87 to 90 °C

Compound | melting point
COC(=O)CC[C@H](NC(=O)c1ccc(NCCCc2c(NC(C)=O)nc(NC(C)=O)[nH]c2=O)cc1)C(=O)OC | 135 to 142 °C
CCOC(=O)c1c(N2CCN(C(=O)c3cccs3)CC2)c2cccnc2[nH]c1=O | 239 °C
C#CCOc1cc(Oc2ccccc2)ncn1 | 71.1 °C
CCCOc1cc(-c2ccc3cc4c(cc3c2)C(C)(C)CCC4(C)C)ccc1C(=O)O | 137 to 138 °C
CCCC(=O)c1cnc2c(OC)nccc2c1Nc1ccccc1C | 144 °C
O=C(O)Cn1c(=O)oc2cc(-c3ccccc3)c(Cl)cc21 | 200 to 203 °C
O=C(O)[C@@H]1CCc2ccc(O)cc2O1 | 77 to 79 °C
O=C1CCCN1c1ccc(CCN2CCN(c3ccccc3Cl)CC2)cc1 | 132 °C
CC(C)S(=O)(=O)c1ccc2c(c1)nc(CC(C)(C)C)n2CCN(C)C | 116 °C
COC(=O)CSCC1Cn2cc(C(=O)NCc3ccc(Cl)cc3)c(=O)c3cc(CN4CCOCC4)cc(c32)O1 (stereo not given) | 182 to 183 °C
NC(P(=O)(O)O)P(=O)(O)O | 255 to 265 °C
CCn1c(-c2ccc(OC)c(OC)c2)cc(=O)n(CC)c1=O | 104 to 107 °C
CCOC(=O)C(=O)Nc1ccc(Br)c2cccnc12 | 152 °C
O=C(Nc1ccc(Cl)cc1)C(Cl)CCl (stereo not given) | 128 to 129 °C
C=CC(=O)NCNC(=O)CCS(=O)(=O)CCCl | 186 to 187 °C
Cc1c(CO)cccc1NC(=O)CC12CC3CC(CC(C3)C1)C2 | 205 to 206 °C
NS(=O)(=O)c1cc(C(=O)O)cc(NC/C=C/CBr)c1Oc1ccccc1 | 191 to 194 °C
O=C(O)c1c(F)cc(F)c(F)c1NCc1ccccc1 | 140 to 141 °C
CC1(C)CCC(C)(C)c2cc(-c3cc(-c4ccc(C(=O)O)cc4)ccc3C(=O)O)ccc21 | 343 °C
COc1cc(C)c(C(=O)c2c(Cl)cccc2Cl)cc1OC(C)(C)C | 102 °C
CCC(CC)Nc1c([N+](=O)[O-])cc(C)c(COC(=O)NC)c1[N+](=O)[O-] | 117 to 120 °C
COC(=O)c1ccccc1C(=O)c1ccc(N2CCC(N3C(=O)OCc4ccc(Cl)cc43)CC2)c([N+](=O)[O-])c1 | 90 to 92 °C
